# Data taken from PMC5372986, “Diminished Antimicrobial Peptide and Antifungal Antibiotic Activities against Candida albicans in Denture Adhesive” (Antibiotics, 2017).
# Bridge positions count the residues as written; N and C are the ends. Ends that are not written are not given here. Peptide text beside a SMILES is read from it.
# What was measured:
# C. albicans HMV4C = assay: microbe, parasite or virus in culture; conditions: C. albicans HMV4C; for Activity in gels with 1.0% denture adhesive compared with gels without: result in words, Tukey HSD, 0.05 level
# Method: (§1) C. albicans strains ATCC 64124 and HMV4C were used and cultivated as previously described. Their identities were verified (State Hygienic Laboratory, University of Iowa Research Park, Coralville, IA, USA). These cultures were adjusted to contain 1.2–3.7 × 10^6 CFU/mL in Roswell Park Memorial Institute (RPMI) 1640 medium.
# (§2) The denture adhesive used was a standard, over-the-counter gel containing poly sodium-calcium mixed partial salt, petrolatum, cellulose gum, and mineral oil and was prepared as previously described. Denture adhesive was too viscous to use directly and was diluted to 1.0% for incorporation into the radial diffusion assay.
# (§3) Each agent was reconstituted in distilled water with 0.01% acetic acid for resuspension to keep the agent in solution. Two-fold dilutions were prepared.
# (§4) The radial diffusion assays were performed as described with the following unique modifications. Underlay agarose gels were prepared with and without 1.0% denture adhesive in square petri dishes (Electron Microscopy Sciences, Hatfield, PA, USA). Plates without 1.0% adhesive contained 12.5 mL of 10.0 mM sodium phosphate buffer adjusted to pH 7.4, 12.5 mL of 2.0% agarose (Agarose LE, Roche Diagnostics Corporation, Indianapolis, IN, USA) in 10.0 mM sodium phosphate adjusted to pH 7.4, and 1.0 mL of C. albicans culture per plate. Plates with 1.0% adhesive contained 12.5 mL of 2.0% dental adhesive in 10.0 mM sodium phosphate adjusted to pH 7.4, 12.5 mL 2.0% agarose (Agarose LE, Roche Diagnostics Corporation, Indianapolis, IN, USA) in 10.0 mM sodium phosphate adjusted to pH 7.4, and 1.0 mL of C. albicans culture. Wells of 2.0 mm in diameter were created and filled with 5.0 µL of AMP or antifungal antibiotic dilution (n = three replications per test). A blank of 0.01% acetic acid in distilled water was also included. The plates were incubated at 37 °C for 3 h. After incubation, 10.0 mL of overlay containing 1.0% agarose in 10.0 mM phosphate buffer with 6.0% RPMI 1640, was added to each plate. The plates were incubated at 37 °C overnight. At 24 h, antimicrobial activity was determined by measuring the zone of clearance around the center of each well and extrapolating MIC as described.
# (§5) When MICs fell outside the range of the assay, we considered the MIC to be equal to the highest concentration used in the assay. […] One-way fixed-effects ANOVA models were fit to the µM MIC values. Pairwise group comparisons were conducted using the method of Tukey’s Honest Significant Differences (HSD). A 0.05 level was used to determine statistically significant differences. All analyses were conducted using JMP (Version 10.0, SAS, Cary, NC, USA).
# C. albicans ATCC 64124 = assay: microbe, parasite or virus in culture; conditions: C. albicans ATCC 64124; for Activity in gels with 1.0% denture adhesive compared with gels without: result in words, Tukey HSD, 0.05 level
# Method: as §1, §2, §3, §4, §5
# Candida albicans = conditions: broth microdilution, p < 0.05; cited from earlier work
# Text: Candida species infections can cause complications for individuals with dentures, such as denture stomatitis.
# [1] = No Adhesive, radial diffusion, mean (standard error, n = 3)
# [2] = in both gels with or without 1.0% denture adhesive
# [3] = Adhesive (1.0% denture adhesive in gel), radial diffusion, mean (standard error, n = 3)
# [4] = Adhesive (1.0% denture adhesive in gel), radial diffusion, pH 7.4, 37 °C, read at 24 h, mean (standard error, n = 3)
Compound,Minimal inhibitory concentration (MIC) (C. albicans HMV4C; [1]),Minimal inhibitory concentration (MIC) (C. albicans ATCC 64124; [2]) [µM],Activity in gels with 1.0% denture adhesive compared with gels without (C. albicans HMV4C; radial diffusion),Loss of antimicrobial activity in 1.0% denture adhesive (Candida albicans),Activity in gels with 1.0% denture adhesive compared with gels without (C. albicans ATCC 64124; radial diffusion),also measured
"CC[C@H](C)[C@@H]1NC(=O)[C@H](CCCCN)NC(=O)[C@H]([C@@H](C)O)NC(=O)[C@H](Cc2ccccc2)NC(=O)[C@H]([C@@H](C)CC)NC(=O)[C@@H]2CCCN2C(=O)[C@@H]2CSSC[C@@H](C(=O)N[C@@H](CCCCN)C(=O)O)NC(=O)[C@@H]3CSSC[C@H](NC(=O)[C@H](CC(N)=O)NC(=O)[C@H](Cc4ccc(O)cc4)NC(=O)[C@H](Cc4c[nH]cn4)NC(=O)[C@@H](N)CC(=O)O)C(=O)N[C@@H](C(C)C)C(=O)N[C@@H](CO)C(=O)N[C@@H](CO)C(=O)NCC(=O)NCC(=O)N[C@@H](CCC(N)=O)C(=O)N[C@@H](CSSC[C@H](NC(=O)[C@H]([C@@H](C)O)NC(=O)CNC(=O)[C@H](CCC(N)=O)NC1=O)C(=O)N[C@@H](Cc1ccc(O)cc1)C(=O)N[C@@H](CCCNC(=N)N)C(=O)NCC(=O)N[C@@H](CCCCN)C(=O)N[C@@H](C)C(=O)N[C@@H](CCCCN)C(=O)N3)C(=O)N[C@@H](CC(C)C)C(=O)N[C@@H](Cc1ccc(O)cc1)C(=O)N[C@@H](CO)C(=O)N[C@@H](C)C(=O)N2 [HBD-1] (H-DHYNCVSSGGQCLYSACPIFTKIQGTCYRGKAKCCK-OH; disulfide 5-34, 12-27, 17-35 (inferred); N-terminus and C-terminus assumed)",>254.1 (0.0) µM,> 254.1,–,–,–,Minimal inhibitory concentration (MIC) (C. albicans HMV4C; [2]): > 254.1 µM
C[C@H](NC(=O)[C@H](Cc1c[nH]cn1)NC(=O)[C@H](CO)NC(=O)[C@@H](N)CC(=O)O)C(=O)N[C@@H](CCCCN)C(=O)N[C@@H](CCCNC(=N)N)C(=O)N[C@@H](Cc1c[nH]cn1)C(=O)N[C@@H](Cc1c[nH]cn1)C(=O)NCC(=O)N[C@@H](Cc1ccc(O)cc1)C(=O)N[C@@H](CCCCN)C(=O)N[C@@H](CCCNC(=N)N)C(=O)N[C@@H](CCCCN)C(=O)N[C@@H](Cc1ccccc1)C(=O)N[C@@H](Cc1c[nH]cn1)C(=O)N[C@@H](CCC(=O)O)C(=O)N[C@@H](CCCCN)C(=O)N[C@@H](Cc1c[nH]cn1)C(=O)N[C@@H](Cc1c[nH]cn1)C(=O)N[C@@H](CO)C(=O)N[C@@H](Cc1c[nH]cn1)C(=O)N[C@@H](CCCNC(=N)N)C(=O)NCC(=O)N[C@@H](Cc1ccc(O)cc1)C(=O)O [Histatin 5],–,> 329.0,diminished activity,–,–,–
CC[C@H](C)[C@H](NC(=O)[C@H](CCCCN)NC(=O)[C@H](CCC(=O)O)NC(=O)[C@H](CCCCN)NC(=O)[C@H](CO)NC(=O)[C@H](CCCCN)NC(=O)[C@H](CCCNC(=N)N)NC(=O)[C@H](Cc1ccccc1)NC(=O)[C@H](Cc1ccccc1)NC(=O)[C@H](CC(=O)O)NC(=O)CNC(=O)[C@H](CC(C)C)NC(=O)[C@@H](N)CC(C)C)C(=O)NCC(=O)N[C@@H](CCCCN)C(=O)N[C@@H](CCC(=O)O)C(=O)N[C@@H](Cc1ccccc1)C(=O)N[C@@H](CCCCN)C(=O)N[C@@H](CCCNC(=N)N)C(=O)N[C@H](C(=O)N[C@H](C(=O)N[C@@H](CCC(N)=O)C(=O)N[C@@H](CCCNC(=N)N)C(=O)N[C@H](C(=O)N[C@@H](CCCCN)C(=O)N[C@@H](CC(=O)O)C(=O)N[C@@H](Cc1ccccc1)C(=O)N[C@@H](CC(C)C)C(=O)N[C@@H](CCCNC(=N)N)C(=O)N[C@@H](CC(N)=O)C(=O)N[C@@H](CC(C)C)C(=O)N[C@H](C(=O)N1CCC[C@H]1C(=O)N[C@@H](CCCNC(=N)N)C(=O)N[C@H](C(=O)N[C@@H](CCC(=O)O)C(=O)N[C@@H](CO)C(=O)O)[C@@H](C)O)C(C)C)[C@@H](C)CC)C(C)C)[C@@H](C)CC [LL37],30.4 (1.0) µM,> 222.4,diminished activity,–,–,Minimal inhibitory concentration (MIC) (C. albicans HMV4C; [3]): >222.4 (0.0) µM; Minimal inhibitory concentration (MIC) (C. albicans ATCC 64124; [3]): >222.4 (0.0) µM; Minimal inhibitory concentration (MIC) (C. albicans ATCC 64124; [1]): >222.4 (0.0) µM
CCCCCCCCCCCCCCC[C@@H](O)[C@@H](N)CO [dihydrosphingosine],–,–,–,lost antimicrobial activity,–,–
CCCCCCCCCCCCCC[C@@H](O)[C@@H](O)[C@@H](N)CO [phytosphingosine],–,–,–,lost antimicrobial activity,–,–
CCCCCCCCCCCCC/C=C/[C@@H](O)[C@@H](N)CO [sphingosine],–,–,–,lost antimicrobial activity,–,–
"GIGDPVTCLKSGAICHPVFCPRRYKQIGTCGLPGTKCCKKP (disulfide 8-37, 15-30, 20-38 (inferred)) [HBD-2]",–,–,diminished activity,–,diminished activity,–
"GIINTLQKYYCRVRGGRCAVLSCLPKEEQIGKCSTRGRKCCRRKK (disulfide 11-40, 18-33, 23-41 (inferred)) [HBD-3]",–,–,diminished activity,–,diminished activity,–
IP-10: recombinant human CXCL10 (Peprotech),2.2 (0.0) µM,–,diminished activity,–,diminished activity,"Minimal inhibitory concentration (MIC) (C. albicans HMV4C; [4]): >200.0 (0.0) µg/mL; Minimal inhibitory concentration (MIC) (C. albicans HMV4C; [3]): >23.1 (0.0) µM; Minimal inhibitory concentration (MIC) (C. albicans HMV4C; No Adhesive, radial diffusion, agarose in 10.0 mM sodium phosphate pH 7.4, 37 °C, read at 24 h, mean (standard error, n = 3)): 18.6 (0.3) µg/mL; Minimal inhibitory concentration (MIC) (C. albicans ATCC 64124; [4]): >1000.0 (0.0) µg/mL; Minimal inhibitory concentration (MIC) (C. albicans ATCC 64124; [3]): >115.7 (0.0) µM; Minimal inhibitory concentration (MIC) (C. albicans ATCC 64124; No Adhesive, radial diffusion, pH 7.4, 37 °C, read at 24 h, mean (standard error, n = 3)): 103.6 (3.2) µg/mL; Minimal inhibitory concentration (MIC) (C. albicans ATCC 64124; [1]): 12.0 (0.4) µM"
